Source: PubChem BioAssay (NCI)
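Tested at 5 concentrations; 48 h exposure; 96-well plates; endpoints linearly interpolated, else capped at highest concentration. GI50 is the concentration that inhibits growth by half. Definition used: TGI = concentration required for complete inhibition of growth.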

Experiments:
Experiment in all cases: inhibition of tumour cell growth, NCI panel, 48 h
ACHN renal = system: ACHN renal
CCRF-CEM leukemia = system: CCRF-CEM leukemia
M14 melanoma = system: M14 melanoma
MCF7 breast = system: MCF7 breast
OVCAR-5 ovarian = system: OVCAR-5 ovarian
OVCAR-8 ovarian = system: OVCAR-8 ovarian
PC-3 prostate = system: PC-3 prostate
SF-539 CNS = system: SF-539 CNS
SW-620 colon = system: SW-620 colon
UACC-257 melanoma = system: UACC-257 melanoma

SMILES | GI50 (ACHN renal) | TGI (ACHN renal) | GI50 (CCRF-CEM leukemia) | TGI (CCRF-CEM leukemia) | GI50 (M14 melanoma) | TGI (M14 melanoma) | GI50 (MCF7 breast) | TGI (MCF7 breast) | GI50 (OVCAR-5 ovarian) | TGI (OVCAR-5 ovarian) | GI50 (OVCAR-8 ovarian) | TGI (OVCAR-8 ovarian) | GI50 (PC-3 prostate) | TGI (PC-3 prostate) | GI50 (SF-539 CNS) | TGI (SF-539 CNS) | GI50 (SW-620 colon) | TGI (SW-620 colon) | GI50 (UACC-257 melanoma) | TGI (UACC-257 melanoma)
CN1C(=O)N(C)C2C1NN=c1s/c(=C\c3c[nH]c4ccccc34)c(=O)n12 (stereo not given) | 0.0754 µM | > 100 µM | 0.0337 µM | > 100 µM | 0.0294 µM | > 100 µM | 0.0338 µM | > 100 µM | 0.0731 µM | > 100 µM | 0.0547 µM | > 100 µM | 0.0413 µM | > 100 µM | 0.0301 µM | 55.9 µM | 0.0442 µM | > 100 µM | > 100 µM | > 100 µM
c1ccc(CCCNc2nnnc3ccccc23)cc1 |  | > 100 µM |  | > 100 µM |  | > 100 µM |  | > 100 µM |  | > 100 µM |  | > 100 µM |  | > 100 µM |  | > 100 µM |  | > 100 µM |  | > 100 µM
CCCCCCCCCCCCOC1C(CNCC2OC3OC(C)(C)OC3C2NC(=O)Nc2ccc(C(F)(F)F)cc2)OC2OC(C)(C)OC21 (stereo not given) | 7.05 µM | 14 µM | 2.45 µM | 12.5 µM | 8.27 µM | 15.8 µM | 3.53 µM | 7.94 µM | 9.11 µM | 17 µM | 6.81 µM | 18.1 µM | 6.68 µM | 13.2 µM | 7.09 µM | 13.9 µM | 4.09 µM | 10.2 µM | 8.62 µM | 17.9 µM
Cc1coc2c1CC1OC1(C)CCC1OC1(C)C2 (stereo not given) |  | > 100 µM |  | > 100 µM |  | > 100 µM |  | > 100 µM |  | > 100 µM |  | > 100 µM |  | > 100 µM |  | > 100 µM |  | > 100 µM |  | > 100 µM
COc1cc([N+](=O)[O-])c(S(=O)(=O)O)cc1N |  | > 100 µM |  | > 100 µM |  | > 100 µM |  | > 100 µM |  | > 100 µM |  | > 100 µM |  | > 100 µM |  | > 100 µM |  | > 100 µM |  | > 100 µM
COc1ccc(N2CCN(CN3CCN(c4ccc(OC)cc4)C3)C2)cc1 | 33.5 µM | 96.9 µM | 33.4 µM | > 100 µM | > 100 µM | > 100 µM | 69.5 µM | > 100 µM | > 100 µM | > 100 µM | > 100 µM | > 100 µM | > 100 µM | > 100 µM | > 100 µM | > 100 µM | 28.2 µM | > 100 µM | > 100 µM | > 100 µM
Cc1c2cnccc2c(C)c2c1c1cc(C(=O)O)ccc1n2C | 0.464 µM | 5.27 µM | 1.06 µM | 6.6 µM | 1.3 µM | 3.74 µM | 1.02 µM | 13.6 µM | 1.91 µM | 9.52 µM | 0.675 µM | 8.3 µM | 1.68 µM | 8.09 µM | 1.01 µM | 3.27 µM | 0.49 µM | 6.7 µM | 1.12 µM | 4.84 µM
COc1ccc(S(=O)(=O)NC2=NCCN2C(=S)SN2CCn3c2nsc3=S)cc1OC | 28.9 µM | > 100 µM | 11.3 µM | 30.9 µM | 20.4 µM | 48.8 µM | 15.7 µM | 35.7 µM | 20.8 µM | 40.4 µM | 29.5 µM | > 100 µM | 27.1 µM | 94 µM | 34.3 µM | > 100 µM | 18.9 µM | > 100 µM | 25.1 µM | 82.9 µM
CCN1/C(=C/C=C/C=C/c2sc3ccccc3[n+]2CC)Sc2ccccc21 | 0.566 µM | 3.28 µM | 0.353 µM | > 21.8 µM | 0.416 µM | 1.49 µM | 0.29 µM | 1.3 µM | 0.639 µM | 6.05 µM | 0.398 µM | 2.58 µM | 0.243 µM | 1.39 µM | 0.377 µM | 2.49 µM | 0.379 µM | 1.84 µM | 0.475 µM | 2.94 µM
Cc1cc(C(=O)N[C@@H](CCC(=O)O)C(=O)O)sc1CC[C@@H]1CNc2nc(N)[nH]c(=O)c2C1 | < 0.01 µM | > 100 µM | 0.0316 µM | > 100 µM | < 0.0124 µM | > 100 µM | 0.0102 µM | > 100 µM | 0.026 µM | > 100 µM | < 0.0172 µM | > 90.6 µM | < 0.01 µM | > 100 µM | < 0.01 µM | > 100 µM | 0.0101 µM | > 100 µM | 0.0559 µM | > 100 µM
